From patent US10800792B2, “Inhibitors of Bruton's tyrosine kinase and method of their use” (JANSSEN PHARMACEUTICA NV, priority 2015, dated 2020)

target: unphosphorylated-BTK kinase domain (UP-BTK), GST-tagged human BTK (389-659aa) (Homo sapiens (Human), UniProt Q06187); assay: BTK kinase Lanthascreen binding assay; conditions: Lanthascreen tracer competition, 60 minutes incubation; pIC50 = negative log of the IC50 in molar
In short: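 Values are pIC50, i.e. negative log of IC50 in molar, derived from concentration–response fitting. Each compound competes with a fluorescently labelled tracer for the unphosphorylated kinase domain.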

unphosphorylated-BTK kinase domain (UP-BTK), GST-tagged human BTK (389-659aa), sequence (Q06187 389-659): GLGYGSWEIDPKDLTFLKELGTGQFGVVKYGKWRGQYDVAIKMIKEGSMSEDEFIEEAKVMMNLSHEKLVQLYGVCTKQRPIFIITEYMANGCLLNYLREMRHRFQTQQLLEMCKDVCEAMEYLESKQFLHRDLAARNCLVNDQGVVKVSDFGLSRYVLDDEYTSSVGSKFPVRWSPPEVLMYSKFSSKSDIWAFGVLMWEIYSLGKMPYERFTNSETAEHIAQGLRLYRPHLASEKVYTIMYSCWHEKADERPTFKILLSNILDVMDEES

Row | SMILES | BTK_I_binding pIC50
1 | O=C(N[C@@H]1CNCC[C@H]1O)c1sc2nccc3c2c1NC(=O)N3c1ccc(Oc2ccccc2)cc1 [Example 658, N-((3R,4R)-4-Hydroxypiperidin-3-yl)-4-oxo-5-(4-phenoxyphenyl)-4,5-dihydro-3H-1-thia-3,5,8-triazaacenaphthylene-2-carboxamide] | 6.6
2 | O=C(N[C@@H]1CCCNC1)c1sc2nccc3c2c1NC(=O)N3c1ccc(OC2CCC2)nc1 [Example 744, (R)-5-(6-Cyclobutoxypyridin-3-yl)-4-oxo-N-(piperidin-3-yl)-4,5-dihydro-3H-1-thia-3,5,8-triazaacenaphthylene-2-carboxamide] | 5.7
3 | C=CC(=O)N1CCC[C@@H](NC(=O)c2sc3nccc4c3c2NC(=O)N4c2ccc(OC3CCC3)cc2C)C1 (single isomer, unassigned) [Example 609, (R)—N-(1-Acryloylpiperidin-3-yl)-5-(*S)-(4-cyclobutoxy-2-methylphenyl)-4-oxo-4,5-dihydro-3H-1-thia-3,5,8-triazaacenaphthylene-2-carboxamide] | 6.3
4 | CC(C)c1cc(N2C(=O)Nc3c(C(=O)N[C@@H]4CCCNC4)sc4nccc2c34)ccn1 [Example 727, (R)-5-(2-Isopropylpyridin-4-yl)-4-oxo-N-(piperidin-3-yl)-4,5-dihydro-3H-1-thia-3,5,8-triazaacenaphthylene-2-carboxamide] | <6

same assay, conditions: Lanthascreen tracer competition, 60 minutes incubation; pIC50 = negative log of the IC50 in molar; read-out: BTK_I_binding pIC50 (converted)

Row | SMILES | IC50
5 | O=C(N[C@@H]1CCCNC1)c1sc2nccc3c2c1NC(=O)N3c1ncc(Oc2ccccc2)cn1 [Example 719, (R)-4-Oxo-5-(5-phenoxypyrimidin-2-yl)-N-(piperidin-3-yl)-4,5-dihydro-3H-1-thia-3,5,8-triazaacenaphthylene-2-carboxamide] | 501 nM

same assay, conditions: pIC50 = negative log of the IC50 in molar; 60 minutes incubation, 50 nM Tracer 236

Row | SMILES | BTK_I_binding pIC50
6 | Cc1c(N2C(=O)Nc3c(C(=O)N[C@@H]4CCCOC4)sc4nccc2c34)ccc(Oc2ccccc2)c1F [Example 71, (R)-5-(3-Fluoro-2-methyl-4-phenoxyphenyl)-4-oxo-N-(tetrahydro-2H-pyran-3-yl)-4,5-dihydro-3H-1-thia-3,5,8-triazaacenaphthylene-2-carboxamide] | 7.5
7 | COC[C@H](O)C(=O)N1CCC[C@@H](NC(=O)c2sc3nccc4c3c2NC(=O)N4c2ccc(Oc3ccccc3)cc2C)C1 [Example 122, N—((R)-1-((S)-2-Hydroxy-3-methoxypropanoyl)piperidin-3-yl)-5-(2-methyl-4-phenoxyphenyl)-4-oxo-4,5-dihydro-3H-1-thia-3,5,8-triazaacenaphthylene-2-carboxamide] | 7.4
8 | Cc1cc(Oc2ccccc2)ccc1N1C(=O)Nc2c(C(=O)NC3CCCN(C(=O)C4CC4)C3)sc3nccc1c23 (stereo not shown) [Example 205, N-(1-(Cyclopropanecarbonyl)piperidin-3-yl)-5-(2-methyl-4-phenoxyphenyl)-4-oxo-4,5-dihydro-3H-1-thia-3,5,8-triazaacenaphthylene-2-carboxamide] | 6.8

same assay, conditions: unphosphorylated-BTK kinase domain, 50 nM Tracer 236, 60 minutes; pIC50 = negative log of the IC50 in molar

Row | SMILES | BTK_I_binding pIC50
9 | C=CC(=O)N1CCC[C@@H](NC(=O)c2sc3nccc4c3c2NC(=O)N4c2cccc(-c3ccccc3C)c2)C1 [Example 504, (R)—N-(1-Acryloylpiperidin-3-yl)-5-(2′-methyl-[1,1′-biphenyl]-3-yl)-4-oxo-4,5-dihydro-3H-1-thia-3,5,8-triazaacenaphthylene-2-carboxamide] | 8.0
10 | C=CC(=O)N1CC[C@@H](N(C)C(=O)c2sc3nccc4c3c2NC(=O)N4c2ccc(Oc3ccccc3)cc2C)C1 (single isomer, unassigned) [Example 441, (R)—N-(1-Acryloylpyrrolidin-3-yl)-N-methyl-5-(*S)-(2-methyl-4-phenoxyphenyl)-4-oxo-4,5-dihydro-3H-1-thia-3,5,8-triazaacenaphthylene-2-carboxamide] | 5.9
11 | Cc1cc(Oc2ccccc2)ccc1N1C(=O)Nc2c(C(=O)NCC3CCN(C)C3)sc3nccc1c23 (stereo not shown) [Example 282, 5-(2-Methyl-4-phenoxyphenyl)-N-((1-methylpyrrolidin-3-yl)methyl)-4-oxo-4,5-dihydro-3H-1-thia-3,5,8-triazaacenaphthylene-2-carboxamide] | 6.2
12 | Cc1cc(Oc2ccccc2)ccc1N1C(=O)Nc2c(C(=O)N[C@@H]3CCCN(C(=O)CN4CCCC4)C3)sc3nccc1c23 [Example 389, (R)-5-(2-Methyl-4-phenoxyphenyl)-4-oxo-N-(1-(2-(pyrrolidin-1-yl)acetyl)piperidin-3-yl)-4,5-dihydro-3H-1-thia-3,5,8-triazaacenaphthylene-2-carboxamide] | 7.0

The remaining lines, values ahead:

Row | BTK_I_binding pIC50 | SMILES
13 | 7.5 | C=CC(=O)N1C[C@H](NC(=O)c2sc3nccc4c3c2NC(=O)N4c2ccc(Oc3ccccc3)cc2C)[C@@H](O)C1 (relative stereo) [Example 523, N-((3S,4S)-1-Acryloyl-4-hydroxypyrrolidin-3-yl)-5-(*S)-(2-methyl-4-phenoxyphenyl)-4-oxo-4,5-dihydro-3H-1-thia-3,5,8-triazaacenaphthylene-2-carboxamide]
14 | 7.3 | C=CC(=O)N1CCC[C@@H](NC(=O)c2sc3nccc4c3c2NC(=O)N4c2cccc(C3CCCCC3)c2)C1 [Example 519, (R)—N-(1-Acryloylpiperidin-3-yl)-5-(3-cyclohexylphenyl)-4-oxo-4,5-dihydro-3H-1-thia-3,5,8-triazaacenaphthylene-2-carboxamide]
15 | 7.3 | C=CC(=O)N1C[C@H](O)C[C@@H](NC(=O)c2sc3nccc4c3c2NC(=O)N4c2ccc(OC(C)C)cc2C)C1 [Example 557, N-((3R,5R)-1-Acryloyl-5-hydroxypiperidin-3-yl)-5-(4-isopropoxy-2-methylphenyl)-4-oxo-4,5-dihydro-3H-1-thia-3,5,8-triazaacenaphthylene-2-carboxamide]
16 | 5.7 | Cc1cc(Oc2ccccc2C(N)=O)ccc1N1C(=O)Nc2c(C(=O)N[C@@H]3CCCN(C)C3)sc3nccc1c23 [Example 326, (R)-5-(4-(2-Carbamoylphenoxy)-2-methylphenyl)-N-(1-methylpiperidin-3-yl)-4-oxo-4,5-dihydro-3H-1-thia-3,5,8-triazaacenaphthylene-2-carboxamide]
17 | 7.7 | C=CC(=O)N1CCC[C@@H](NC(=O)c2sc3nccc4c3c2NC(=O)N4c2cccc(Cc3ccccc3)c2)C1 [Example 516, (R)—N-(1-Acryloylpiperidin-3-yl)-5-(3-benzylphenyl)-4-oxo-4,5-dihydro-3H-1-thia-3,5,8-triazaacenaphthylene-2-carboxamide]

same assay, conditions: unphosphorylated-BTK kinase domain, 50 nM Tracer 236, 60 minutes; pIC50 = negative log of the IC50 in molar; read-out: BTK_I_binding pIC50 (converted)

Row | SMILES | IC50
18 | [2H]C([2H])([2H])N1CCC[C@@H](NC(=O)c2sc3nccc4c3c2NC(=O)N4c2ccc(Oc3ccccc3)cc2C)C1 [Example 370, (R)-5-(2-Methyl-4-phenoxyphenyl)-N-(1-trideuteriomethylpiperidin-3-yl)-4-oxo-4,5-dihydro-3H-1-thia-3,5,8-triazaacenaphthylene-2-carboxamide] | 100 nM

same assay, conditions: unphosphorylated-BTK kinase domain, 60 minutes incubation, 50 nM Tracer 236; pIC50 = negative log of the IC50 in molar

Row | SMILES | BTK_I_binding pIC50
19 | N#C/C(=C\C1CC1)C(=O)N1CCC[C@H](NC(=O)c2sc3nccc4c3c2NC(=O)N4c2cccc(Oc3ccccc3)c2)C1 [Example 939, (S,E)-N-(1-(2-Cyano-3-cyclopropylacryloyl)piperidin-3-yl)-4-oxo-5-(3-phenoxyphenyl)-4,5-dihydro-3H-1-thia-3,5,8-triazaacenaphthylene-2-carboxamide] | 6.0
